In US4341780A, “Substituted pyrido [1,2-a] pyrimidines useful as anti-allergic, anti-ulcer and anti-diabetic agents” (Farmitalia Carlo Erba S.p.A., priority 1979, dated 1982):

Experiments:
[1] = test system: passive cutaneous anaphylaxis (PCA); experiment: IgE-mediated passive cutaneous anaphylaxis (PCA) test in rats, oral administration; format: in vivo; details: rat PCA, p.o., pretreatment time 15'; KB = dose reducing to one half the activity of the sensitizing serum; lower = more active
From the text: The compounds of the invention have anti-allergic activity, and are therefore useful in the prevention and treatment of all the affections of allergic origin, e.g. bronchial asthma, allergic rhinitis, hay fever, urticaria and dermatosis. The anti-allergic activity of the compounds of the invention is shown, e.g., by the first that they are active in the passive cutaneous anaphylaxis (PCA) test in rats, according to Goose J. and Blair A. M. J. N. (Immunology, 16, 749, 1969).
The activity data are expressed in terms of KB defined as the dose of active compound capable of reducing to one half the activity of the serum used for the sensitization:
B=dose of antagonist compound expressed in mg/kg;
DR=dose ratio: antilogarithm of the distance between the Log dose effect functions of the scrum with and without antagonist (J. H. Gaddum et al, Exp. Physiol., 1955, 40, 49).
The KB is adopted here because this value is independent both of the dose of the drug and the reagin concentration used for the sensitization.
The lower the KB value, the higher the anti-allergic activity.
The anti-allergic activity was determined e.g. by the inhibition of the IgE-mediated PCA according to Goose J. and Blair A. M. J. N. (Immunology, 16, 749, 1969) using homocytotropic antibodies raised in rats following the method of Mota I., Immunology, 7, 681, (1964).
The tested compounds were administered per os (p.o) 15 minutes before the administration of the antigen: at least 6 rats were used for each dose.

[2] = approximate acute toxicity (LD50) in the mouse, per os; details: in vivo, po, single administration of increasing doses, measured on the seventh day
Procedure: For example, the approximate acute toxicity (LD50) of the compound 2-trans-(2-phenyl-ethenyl)-3-propyl-4-oxo-4H-pyrido(1,2-a)pyrimidine-7-carboxylic acid in the mouse, determined with single adminstration of increasing doses and measured on the seventh day of treatment is per os higher than 800 mg/kg. Analogous toxicity data have been found for the other compounds of the invention.

Row | SMILES | Anti-allergic activity KB [1] | LD50 at 168 h [2]
1 | O=C(O)c1cc(=O)c2c(OCC(O)COc3cccc4oc(C(=O)O)cc(=O)c34)cccc2o1 [Disodium Cromoglycate, reference compound] | > 200 mg/kg | 
2 | CCCc1c(/C=C/c2ccccc2C)nc2ccc(C(=O)O)cn2c1=O [FCE 20099, 2-trans-[2-(2-methyl-phenyl)-ethenyl]-3-propyl-4-oxo-4H-pyrido[1,2-a]pyrimidine-7-carboxylic acid] | 2.02 mg/kg | 
3 | CCCc1c(/C=C/c2cccc(OC)c2)nc2ccc(C(=O)O)cn2c1=O [FCE 20183, 2-trans-[2-(3-methoxy-phenyl)-ethenyl]-3-propyl-4-oxo-4H-pyrido[1,2-a]pyrimidine-7-carboxylic acid] | 1.48 mg/kg | 
4 | CCCc1c(/C=C/c2ccccc2)nc2n(c1=O)C1CC1(C(=O)O)C=C2 (stereo not drawn) [FCE 20188, 2-trans-(2-phenyl-ethenyl)-3-propyl-6,7-methylen-4-oxo-4H-pyrido[1,2-a]pyrimidine-7-carboxylic acid] | 2.34 mg/kg | 
5 | CCCc1c(/C=C/c2cccc(OC)c2OC)nc2n(c1=O)C1CC1(C(=O)O)C=C2 (stereo not drawn) [FCE 20461, 2-trans-[2-(2,3-dimethoxy-phenyl)-ethenyl]-3-propyl-6,7-methylen-4-oxo-4H-pyrido[1,2-a]pyrimidine-7-carboxylic acid] | 1.22 mg/kg | 
6 | CCc1c(/C=C/c2cccc(OC)c2)nc2n(c1=O)C1CC1(C(=O)O)C=C2 (stereo not drawn) [FCE 20509, 2-trans-[2-(3-methoxy-phenyl)-ethenyl]-3-ethyl-6,7-methylen-4-oxo-4H-pyrido[1,2-a]pyrimidine-7-carboxylic acid] | 0.61 mg/kg | 
7 | CCCc1c(/C=C/c2ccccc2)nc2ccc(C(=O)O)cn2c1=O [K 13808, 2-trans-(2-phenyl-ethenyl)-3-propyl-4-oxo-4H-pyrido[1,2-a]pyrimidine-7-carboxylic acid] | 2.16 mg/kg | > 800 mg/kg
8 | CCc1c(/C=C/c2ccccc2)nc2n(c1=O)C1CC1(C(=O)O)C=C2 (stereo not drawn) [K 13830, 2-trans-(2-phenyl-ethenyl)-3-ethyl-6,7-methylen-4-oxo-4H-pyrido[1,2-a]pyrimidine-7-carboxylic acid] | 1.15 mg/kg | 
